We go through one compound from patent publication US9056887B2, “Minor groove binder phosphoramidites and methods of use” (Elitech Holding B.V., priority 2011, dated 2015).

The nature of the series: Solubility of MGB phosphoramidites in acetonitrile (oligonucleotide synthesis solvent). It is filed as physicochemical. The settings on record: standard solvent for on-line oligosynthesis. As to the method:
Activated pentafluorophenyl ester 1 of the DPI3 type of minor groove bindinding ligands was prepared as previously described (U.S. Pat. No. 7,381,818) and coupled with four secondary amine-containing terminal functions generatin trimers 2(a-d), (Reaction Scheme 1, FIG. 1) suitable for following protection and phosphoramidite preparation. The use of secondary amino function prevents the possibility of the formation of acyclic side-product (Basel and Hassner 2000) during the following protection step. The trimers 2(a-d) were reacted with diethyl pyrocarbonate in the presence of DMAP to protect the three heteroaromatic indolamino groups and afford carbomates 3(a-d). Methyl and tert-butyl dicarbonates were also tested and produced the respective carbamates with good yields. […] Therefore, the ethylcarbamate protection was concluded to be optimal allowing fast deprotection and providing the required solubility in acetonitrile. […]
Test octathymidylates were synthesized on an ABI 3900 DNA synthesizer using thymidine-5′- or 3′-phosphoramidites and a DMT-O-hexylsuccinate solid support. […] Crude reaction mixtures were concentrated in a SpeedVac evaporator and analyzed by mass spectroscopy to confirm molecular weight and determine purity of crude MGB-oligonucleotide conjugates. […]

Each structure is given as a SMILES string.

As for `CCOC(=O)n1c(-c2ccc(OCCCCCCOP(OCCC#N)N(C(C)C)C(C)C)cc2)nc2cc(-c3nc4cc(-c5nc6cc(N7CCN(C)CC7)ccc6n5C(=O)OCC)ccc4n3C(=O)OCC)ccc21` (stereo not shown) [Phosphoramidite 25], the solubility in acetonitrile entry is on record as “only sparingly soluble”.
